The values below come from patent US20140193529A1, “Modulation of Thymosin Beta-4 in Skin” (AVON PRODUCTS, INC., priority 2013, published 2014).

Assay [1] concerns thymosin beta-4 (TMSB4X) mRNA. Nature of the assay: Thymosin beta-4 stimulation assay (QUANTIGENE multiplex mRNA assay). The class given is cell-based. Particulars: human dermal fibroblasts, 24 hours. The procedure:
Normal human dermal fibroblasts were cultured in 96-well tissue culture-treated plates, containing appropriate culture medium. Stock solutions of actives were made in an appropriate vehicle (water or DMSO). Cells were treated with test material or respective vehicle control diluted in growth medium for 24 hours in a humidified 37° C. incubator with 10% CO2. After incubation, growth medium from each plate was removed and 100 μL, of lysis buffer was added to the wells and placed in 37° C. incubator with 10% CO2 for 30 minutes. At the end of incubation, the cell lysates were collected in freezer plates and placed in −80° C. freezer until analysis. Changes in mRNA for thymosin beta-4 (TMSB4X) after treatment were analyzed using Affymetrix's QUANTIGENE® multiplex assay that employs a branched DNA signal amplification technology, following the manufacturer's instructions (Affymetrix, Calif.). Percent increase in mRNA for thymosin beta-4 (TMSB4X) was calculated by comparing the test results to the control. The percent up-regulation is converted to a scaled score as shown below in Table 2.
A variety of botanical extracts were tested for the ability to up-regulate Thymosin beta-4 according to the method of Example 1. The concentrations of each extract are provided based on the dry weight of the given plant extract, by which is meant the weight of the extract after volatile extraction solvents have been removed. The cells tested were primary human dermal fibroblasts.
Synthetic compounds 1-4 were also tested as active agents for the ability to upregulate thymosin beta-4 according to the method of Example 1.

A further assay relates to thymosin beta-4. Nature of the assay: Mode of operation of retinol in human skin.
Assay [2] has as its system IL-8 gene and protein expression. Nature of the assay: Anti-inflammatory effect of TB-4 in TNF-alpha treated human dermal fibroblasts (qPCR, ELISA, PCR array). In kind it is cell-based. As for the experimental part: Commercially obtained human dermal fibroblasts were treated with tumor necrosis factor alpha for 6 hours to induce inflammation. Cells were either pre-treated with recombinant TB-4 or control media to assess its anti-inflammatory effect. Cell lysates and media were collected and qPCR and ELISA were performed to assess IL-8 gene and protein expression. Human cytokines and chemokines PCR array was also performed to investigate the impact of TB-4 on the expression profile of key secreted proteins in the inflammation pathway. […] Therefore, modulating endogenous TB-4 could be adopted as an avenue to battle inflammatory skin damage resulting from skin chronological aging and photoaging.
On the technique in general: Quantitative PCR measures a nucleic acid by following its amplification.

Regarding `CCOCCCNC(=O)c1cc(NC(=O)/C=C/c2ccccc2)ccc1N1CCC(Cc2ccccc2)CC1` [Compound 1], the “Thymosin beta-4 (TMSB4X) Degree of Upregulation” value (“Thymosin beta-4 (TMSB4X) Degree” below) in assay [1] (compound Conc. 0.001%) is “++ (41-60)”.

For the molecule `Cc1ccc(C(=O)CC(NCc2ccccc2)C(=O)O)cc1` (stereo not shown) [Compound 2], the “Thymosin beta-4 (TMSB4X) Degree” value in assay [1] (compound Conc. 0.0001%) is listed as “+ (21-40)”.

In the case of `CCc1c(C(=O)N2CCCC2)cnn1-c1ccccc1Cl` [Compound 4], the “Thymosin beta-4 (TMSB4X) Degree” value in assay [1] (compound Conc. 0.00001%) is “+ (21-40)”.

As to `CC1=C(/C=C/C(C)=C/C=C/C(C)=C/CO)C(C)(C)CCC1` [retinol], the “upregulation of thymosin beta-4” value in the assay with thymosin beta-4 is given as “potent upregulator”.

Take “TB-4: recombinant thymosin beta-4, 43 amino acid peptide, 4.9 kDa (SDKPDMAEIEKFDKSKLKKTETQEKNPLPSKETIEQEKQAGES; UniProt P62328 2-44, looked up)”: the “regulation of key cytokines and chemokines genes” value in assay [2] (human cytokines and chemokines PCR array, TNF-alpha treated fibroblasts) is recorded as “significantly regulates”. Moreover, the “suppression of IL-8 protein secretion caused by TNF-alpha stimulation” value in assay [2] (pre-treatment with recombinant TB-4, TNF-alpha 6 hours, ELISA) is “greater than 50%”. The “suppression of IL-8 gene expression caused by TNF-alpha stimulation” value in assay [2] (pre-treatment with recombinant TB-4, TNF-alpha 6 hours, qPCR) is “greater than 50%”.
